Experimental data taken from PubChem BioAssay (NCI).
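48-hour exposure; five concentrations; linearly interpolated endpoints. TGI is the concentration that stops growth completely.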

What was measured:
Test in all cases: DTP human tumour cell line panel, 48 h
786-0 renal = test system: 786-0 renal
SK-MEL-2 melanoma = test system: SK-MEL-2 melanoma
UACC-257 melanoma = test system: UACC-257 melanoma
SNB-19 CNS = test system: SNB-19 CNS
BT-549 breast = test system: BT-549 breast
SK-MEL-28 melanoma = test system: SK-MEL-28 melanoma
T-47D breast = test system: T-47D breast
UO-31 renal = test system: UO-31 renal
TK-10 renal = test system: TK-10 renal
CCRF-CEM leukemia = test system: CCRF-CEM leukemia
OVCAR-8 ovarian = test system: OVCAR-8 ovarian
IGROV1 ovarian = test system: IGROV1 ovarian
HT29 colon = test system: HT29 colon
U251 CNS = test system: U251 CNS
MDA-N = test system: MDA-N
HOP-62 NSCLC = test system: HOP-62 NSCLC
MCF7 breast = test system: MCF7 breast
OVCAR-4 ovarian = test system: OVCAR-4 ovarian
PC-3 prostate = test system: PC-3 prostate
UACC-62 melanoma = test system: UACC-62 melanoma
SNB-75 CNS = test system: SNB-75 CNS
RPMI-8226 leukemia = test system: RPMI-8226 leukemia
HCT-116 colon = test system: HCT-116 colon
MDA-MB-435 = test system: MDA-MB-435
MOLT-4 leukemia = test system: MOLT-4 leukemia
SW-620 colon = test system: SW-620 colon
OVCAR-5 ovarian = test system: OVCAR-5 ovarian
K-562 leukemia = test system: K-562 leukemia
A549 NSCLC = test system: A549 NSCLC
HS 578T breast = test system: HS 578T breast
DU-145 prostate = test system: DU-145 prostate
SK-MEL-5 melanoma = test system: SK-MEL-5 melanoma
SF-295 CNS = test system: SF-295 CNS
HCC-2998 colon = test system: HCC-2998 colon
MALME-3M melanoma = test system: MALME-3M melanoma
NCI-H522 lung = test system: NCI-H522 lung
CAKI-1 renal = test system: CAKI-1 renal
NCI/ADR-RES ovarian = test system: NCI/ADR-RES ovarian
RXF 393 renal = test system: RXF 393 renal
KM12 colon = test system: KM12 colon
NCI-H460 lung = test system: NCI-H460 lung
EKVX NSCLC = test system: EKVX NSCLC
SK-OV-3 ovarian = test system: SK-OV-3 ovarian
M14 melanoma = test system: M14 melanoma
COLO 205 colon = test system: COLO 205 colon
OVCAR-3 ovarian = test system: OVCAR-3 ovarian
HCT-15 colon = test system: HCT-15 colon
ACHN renal = test system: ACHN renal
HOP-92 NSCLC = test system: HOP-92 NSCLC
NCI-H23 lung = test system: NCI-H23 lung
SF-268 CNS = test system: SF-268 CNS
MDA-MB-231 breast = test system: MDA-MB-231 breast
A498 renal = test system: A498 renal
NCI-H226 lung = test system: NCI-H226 lung
LOX IMVI melanoma = test system: LOX IMVI melanoma
HL-60(TB) leukemia = test system: HL-60(TB) leukemia
SF-539 CNS = test system: SF-539 CNS
SN12C renal = test system: SN12C renal

C[C@@H]1OC(=O)C[C@H]2CC(=O)N(CCc3cn(S(=O)(=O)C(F)(F)F)c4ccccc34)C[C@@H]21
TGI (786-0 renal): > 100 µM | TGI (SK-MEL-2 melanoma): > 100 µM | TGI (UACC-257 melanoma): > 100 µM | TGI (SNB-19 CNS): > 100 µM | TGI (BT-549 breast): > 100 µM | TGI (SK-MEL-28 melanoma): > 100 µM | TGI (T-47D breast): > 100 µM | TGI (UO-31 renal): > 100 µM | TGI (TK-10 renal): > 100 µM | TGI (CCRF-CEM leukemia): > 100 µM | TGI (OVCAR-8 ovarian): > 100 µM | TGI (IGROV1 ovarian): > 100 µM | TGI (HT29 colon): > 100 µM | TGI (U251 CNS): > 100 µM | TGI (MDA-N): > 100 µM | TGI (HOP-62 NSCLC): > 100 µM | TGI (MCF7 breast): > 100 µM | TGI (OVCAR-4 ovarian): > 100 µM | TGI (PC-3 prostate): > 100 µM | TGI (UACC-62 melanoma): > 100 µM | TGI (SNB-75 CNS): > 100 µM | TGI (RPMI-8226 leukemia): > 100 µM | TGI (HCT-116 colon): > 100 µM | TGI (MDA-MB-435): > 100 µM | TGI (MOLT-4 leukemia): > 100 µM | TGI (SW-620 colon): > 100 µM | TGI (OVCAR-5 ovarian): > 100 µM | TGI (K-562 leukemia): > 100 µM | TGI (A549 NSCLC): > 100 µM | TGI (HS 578T breast): > 100 µM | TGI (DU-145 prostate): > 100 µM | TGI (SK-MEL-5 melanoma): > 100 µM | TGI (SF-295 CNS): > 100 µM | TGI (HCC-2998 colon): > 100 µM | TGI (MALME-3M melanoma): > 100 µM | TGI (NCI-H522 lung): > 100 µM | TGI (CAKI-1 renal): > 100 µM | TGI (NCI/ADR-RES ovarian): > 100 µM | TGI (RXF 393 renal): > 100 µM | TGI (KM12 colon): > 100 µM | TGI (NCI-H460 lung): > 100 µM | TGI (EKVX NSCLC): > 100 µM | TGI (SK-OV-3 ovarian): > 100 µM | TGI (M14 melanoma): > 100 µM | TGI (COLO 205 colon): > 100 µM | TGI (OVCAR-3 ovarian): > 100 µM | TGI (HCT-15 colon): > 100 µM | TGI (ACHN renal): > 100 µM | TGI (HOP-92 NSCLC): > 100 µM | TGI (NCI-H23 lung): > 100 µM | TGI (SF-268 CNS): > 100 µM | TGI (MDA-MB-231 breast): > 100 µM | TGI (A498 renal): > 100 µM

Fc1ccc(C(OCCN2CCC3CCC(C2)N3Cc2cc3ccccc3[nH]2)c2ccc(F)cc2)cc1 (stereo unspecified)
TGI (786-0 renal): 3.08 µM | TGI (NCI-H226 lung): 3.41 µM | TGI (SK-MEL-2 melanoma): 3.16 µM | TGI (UACC-257 melanoma): 3.53 µM | TGI (SNB-19 CNS): 7.55 µM | TGI (BT-549 breast): 5.08 µM | TGI (SK-MEL-28 melanoma): 3.04 µM | TGI (T-47D breast): 3.18 µM | TGI (UO-31 renal): 3.42 µM | TGI (TK-10 renal): 5.38 µM | TGI (CCRF-CEM leukemia): 4.69 µM | TGI (LOX IMVI melanoma): 3.18 µM | TGI (OVCAR-8 ovarian): 3.1 µM | TGI (HL-60(TB) leukemia): 3.69 µM | TGI (SF-539 CNS): 3.01 µM | TGI (IGROV1 ovarian): 2.79 µM | TGI (HT29 colon): 2.49 µM | TGI (U251 CNS): 3.42 µM | TGI (MDA-N): 3.1 µM | TGI (HOP-62 NSCLC): 4.54 µM | TGI (MCF7 breast): 3.57 µM | TGI (OVCAR-4 ovarian): 5.68 µM | TGI (PC-3 prostate): 3.25 µM | TGI (UACC-62 melanoma): 4.46 µM | TGI (SNB-75 CNS): 3.97 µM | TGI (RPMI-8226 leukemia): 3.42 µM | TGI (HCT-116 colon): 2.6 µM | TGI (MDA-MB-435): 3.55 µM | TGI (MOLT-4 leukemia): 4.03 µM | TGI (SW-620 colon): 3.78 µM | TGI (SN12C renal): 3.05 µM | TGI (OVCAR-5 ovarian): 4.18 µM | TGI (A549 NSCLC): 4.26 µM | TGI (HS 578T breast): 4 µM | TGI (DU-145 prostate): 3.59 µM | TGI (SK-MEL-5 melanoma): 3.11 µM | TGI (SF-295 CNS): 3.78 µM | TGI (HCC-2998 colon): 3.06 µM | TGI (MALME-3M melanoma): 2.96 µM | TGI (NCI-H522 lung): 2.84 µM | TGI (CAKI-1 renal): 5.69 µM | TGI (NCI/ADR-RES ovarian): 3.1 µM | TGI (RXF 393 renal): 3.12 µM | TGI (KM12 colon): 3.72 µM | TGI (NCI-H460 lung): 3.67 µM | TGI (EKVX NSCLC): 3.73 µM | TGI (SK-OV-3 ovarian): 5.69 µM | TGI (M14 melanoma): 2.94 µM | TGI (COLO 205 colon): 2.14 µM | TGI (OVCAR-3 ovarian): 3.39 µM | TGI (HCT-15 colon): 2.38 µM | TGI (ACHN renal): 4.07 µM | TGI (HOP-92 NSCLC): 3.62 µM | TGI (NCI-H23 lung): 3.05 µM | TGI (SF-268 CNS): 4.12 µM | TGI (MDA-MB-231 breast): 3.22 µM | TGI (A498 renal): 2.99 µM

CC1(C)CCc2c(c(N=Nc3ccccc3)c3ccccc3c2O)O1
TGI (786-0 renal): 30.8 µM | TGI (NCI-H226 lung): > 100 µM | TGI (SK-MEL-2 melanoma): 34.5 µM | TGI (UACC-257 melanoma): 39.8 µM | TGI (SNB-19 CNS): > 100 µM | TGI (BT-549 breast): > 100 µM | TGI (SK-MEL-28 melanoma): > 100 µM | TGI (T-47D breast): > 100 µM | TGI (UO-31 renal): 60.3 µM | TGI (TK-10 renal): 46.1 µM | TGI (CCRF-CEM leukemia): > 100 µM | TGI (LOX IMVI melanoma): 54 µM | TGI (OVCAR-8 ovarian): > 100 µM | TGI (HL-60(TB) leukemia): > 100 µM | TGI (SF-539 CNS): 69.6 µM | TGI (IGROV1 ovarian): > 100 µM | TGI (HT29 colon): 34 µM | TGI (U251 CNS): 61.3 µM | TGI (MDA-N): 41.7 µM | TGI (HOP-62 NSCLC): > 100 µM | TGI (MCF7 breast): 47 µM | TGI (OVCAR-4 ovarian): > 100 µM | TGI (PC-3 prostate): 71.8 µM | TGI (UACC-62 melanoma): > 100 µM | TGI (RPMI-8226 leukemia): > 100 µM | TGI (HCT-116 colon): 51.2 µM | TGI (MDA-MB-435): 83.5 µM | TGI (MOLT-4 leukemia): > 100 µM | TGI (SW-620 colon): > 100 µM | TGI (SN12C renal): 40.1 µM | TGI (OVCAR-5 ovarian): > 100 µM | TGI (K-562 leukemia): > 100 µM | TGI (A549 NSCLC): > 100 µM | TGI (HS 578T breast): > 100 µM | TGI (DU-145 prostate): 83 µM | TGI (SK-MEL-5 melanoma): > 100 µM | TGI (SF-295 CNS): 57.3 µM | TGI (MALME-3M melanoma): > 100 µM | TGI (NCI-H522 lung): > 100 µM | TGI (CAKI-1 renal): 69.1 µM | TGI (NCI/ADR-RES ovarian): > 100 µM | TGI (RXF 393 renal): 33.6 µM | TGI (KM12 colon): > 100 µM | TGI (NCI-H460 lung): 53.3 µM | TGI (EKVX NSCLC): 59.5 µM | TGI (SK-OV-3 ovarian): 50.3 µM | TGI (M14 melanoma): 88.8 µM | TGI (COLO 205 colon): > 100 µM | TGI (OVCAR-3 ovarian): 53.1 µM | TGI (HCT-15 colon): > 100 µM | TGI (ACHN renal): 33.5 µM | TGI (HOP-92 NSCLC): 63.9 µM | TGI (NCI-H23 lung): > 100 µM | TGI (SF-268 CNS): > 100 µM | TGI (MDA-MB-231 breast): 67 µM | TGI (A498 renal): 44.1 µM
